In patent US20250017931A1, “METHODS OF PERSONALIZING CANCER TREATMENT” (PROCESSA PHARMACEUTICALS, INC.,, priority 2023, published 2025):
Read-outs that look alike come from different tables or passages of the source.

Columns and labels:
[1] = target: T1, dihydropyrimidine dehydrogenase (DPD) (Homo sapiens, UniProt Q12882); conditions: background statement; cited from earlier work
T1 sequence (Q12882 4-1025): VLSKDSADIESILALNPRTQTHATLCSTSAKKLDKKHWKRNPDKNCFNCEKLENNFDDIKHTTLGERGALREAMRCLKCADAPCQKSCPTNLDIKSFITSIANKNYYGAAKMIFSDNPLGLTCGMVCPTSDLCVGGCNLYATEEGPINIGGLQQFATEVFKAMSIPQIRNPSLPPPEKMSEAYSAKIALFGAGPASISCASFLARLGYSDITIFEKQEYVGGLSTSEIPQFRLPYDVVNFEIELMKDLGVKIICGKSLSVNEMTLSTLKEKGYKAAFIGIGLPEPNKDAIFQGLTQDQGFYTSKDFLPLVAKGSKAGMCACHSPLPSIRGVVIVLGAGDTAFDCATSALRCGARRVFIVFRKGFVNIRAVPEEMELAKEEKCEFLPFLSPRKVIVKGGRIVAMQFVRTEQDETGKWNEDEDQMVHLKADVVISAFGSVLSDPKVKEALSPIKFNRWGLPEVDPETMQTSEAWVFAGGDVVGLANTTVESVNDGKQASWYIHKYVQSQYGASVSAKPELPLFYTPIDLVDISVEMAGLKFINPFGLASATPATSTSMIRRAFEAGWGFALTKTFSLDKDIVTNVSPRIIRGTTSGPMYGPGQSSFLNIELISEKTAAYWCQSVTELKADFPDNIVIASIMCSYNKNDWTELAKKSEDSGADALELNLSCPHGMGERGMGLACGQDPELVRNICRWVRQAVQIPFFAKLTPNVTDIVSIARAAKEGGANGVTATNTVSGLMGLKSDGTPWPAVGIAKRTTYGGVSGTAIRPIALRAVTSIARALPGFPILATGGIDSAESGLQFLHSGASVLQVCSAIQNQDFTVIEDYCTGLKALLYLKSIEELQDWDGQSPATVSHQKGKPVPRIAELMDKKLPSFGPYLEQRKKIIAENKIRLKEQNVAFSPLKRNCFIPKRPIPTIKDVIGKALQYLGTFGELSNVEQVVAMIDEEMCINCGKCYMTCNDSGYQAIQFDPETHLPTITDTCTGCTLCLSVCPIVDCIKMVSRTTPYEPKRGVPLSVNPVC

[2] = human, in vivo
Experimental: 40 mg of PCS6422 is administered to the subjects on day 1. Subsequently, 75 mg of capecitabine is administered to the subjects daily (Cohort 1) or twice daily (Cohort 2A, morning and night) on days 2-8 followed by 6 days of a drug-free period (days 9-14).
Blood samples for pharmacokinetic (PK) analysis of PCS6422 and its major metabolite, 5-acetyluracil, are drawn in cycle 1 on day 1 at 0 (pre-dose), 1, 2, 3, 5, 7, 9, and 24 hours post PCS6422 administration. On the first day of capecitabine treatment (Cycle 1, day 2), blood samples for PK analysis of capecitabine, 5-fluorouracil (5-FU), and the quantifiable main metabolites, α-fluoro-β-alanine (FBAL), 5′-deoxy-5-fluorocytidine (5′-DFCR), and doxifluridine (5′-DFUR) are obtained at the following time points relative to administration of the first dose of capecitabine (dose 1): 0 (pre-dose/trough), 0.5, 1, 2, 3, 5, 7, and at 9 hours. In cycle 1 on Day 8, blood samples are obtained at the following time points relative to administration of the dose of capecitabine (dose 7 of cycle 1): 0 (pre-dose/trough), 0.5, 1, 2, 3, 5, 7, 9, 24, 30, and 48 hours post-capecitabine dose. A capecitabine blood sample is also drawn on cycle 2, day 1, prior to the dose of PCS6422.
Blood samples are also drawn for the analysis of DPD activity using uracil and dihydrouracil concentrations at screening and at the following times during Cycle 1: Day 1, Day 2, Day 8, Day 9, and Day 10. A blood sample is also drawn on Cycle 2, day 1 prior to the dose of PCS6422. All blood samples for analysis of uracil and dihydrouracil concentrations are taken prior a subject's meal, if possible. Actual sample time is recorded. Validated analytical methods are used to determine the concentrations of PCS6422, 5-acetyluracil, capecitabine, 5-FU, FBAL, 5′-DFCR, and 5′-DFUR, uracil, and/or dihydrouracil in plasma.

[3] = laboratory animals; cited from earlier work
[4] = human, in vivo; remark: listed apart in the source
Experimental: 40 mg of PCS6422 was administered to the subjects on both of day 1 and day 5 (Cohort 2B) or on only day 1 (Cohort 2D). Subsequently, 75 mg of capecitabine was administered to the subjects twice daily (morning and night) on days 2-8 followed by 6 days of a drug-free period (days 9-14).
Blood samples for PK analysis of PCS6422 and its major metabolite, 5-acetyluracil in Cycle 1 on Day 1 was drawn at 0 (pre-dose), 1, 2, 3, 5, 7, 9 and 24 hours. The 24-hour post dose sample was collected prior to capecitabine administration on Day 2.
On the first day of capecitabine treatment (Cycle 1, Day 2), blood samples for PK analysis of capecitabine, 5-fluorouracil (5-FU), and the quantifiable main metabolites, α-fluoro-β-alanine (FBAL), 5′-deoxy-5-fluorocytidine (5′-DFCR), and doxifluridine (5′-DFUR) were obtained at the following time points relative to administration of the first dose of capecitabine […]: 0 (pre-dose), 0.5, 1, 2, 3, 5, 7, and 9 hours. In Cycle 1 on Day 8, blood samples were obtained at the following time points relative to administration of the morning dose of capecitabine at time 0 (pre-dose/trough), 0.5, 1, 2, 3, 5, 7, and 9 hours.
Additional PK blood samples for capecitabine and its main metabolites were obtained prior to administration of the morning dose of capecitabine on Days 3, 4, 5, 6, 7, 9. Validated analytical methods were used to determine the concentrations of PCS6422, 5-aceyluracil, capecitabine, 5-FU, FBAL, 5′-DFCR, and 5′-DFUR in plasma.

[5] = target: T1, dihydropyrimidine dehydrogenase (DPD); conditions: cited from earlier work

C#Cc1c[nH]c(=O)[nH]c1=O [PCS6422, 5-ethynyl-1H-pyrimidine-2,4-dione]
inactivation of DPD [1]: potent and irreversible inactivator

NCC(F)C(=O)O (stereo not drawn) [FBAL, α-fluoro-β-alanine]
FBAL Cp high on Day 2 (0-9 hours post capecitabine dose) [2]: 15 to 26 ng/mL
FBAL Cp low on Day 2 (0-9 hours post capecitabine dose) [2]: 15 to 22.6 ng/mL
effect on anti-tumor activity of 5-FU [3]: decrease the anti-tumor activity of 5-FU
FBAL Cp high on Day 2 (0-9 hours post capecitabine dose) [4]: 15 to 33.1 ng/mL

O=c1[nH]cc(F)c(=O)[nH]1 [5-FU, 5-fluorouracil]
fraction of administered 5-FU catabolized by DPD ([5]; background statement): over 80%
5-FU elimination half-life ([5]; with DPD inhibited by PCS6422): several hours
5-FU elimination half-life ([5]; without PCS6422): 10 to 20 min
5FU D 8 0-9 hrs Cp Low [2]: <2 ng/mL
5FU D 8 Cmin [2]: <2 ng/mL
5FU D 9 [2]: <2 ng/mL
highest 5-FU plasma concentration (Cp high) during 0-9 hours following capecitabine dosing [2]: 309 to 466 ng/mL
lowest 5-FU plasma concentration (Cp low) during 0-9 hours following capecitabine dosing [2]: 8.1 to 164 ng/mL
highest 5-FU plasma concentration (Cp high) during 0-9 hours following capecitabine dosing [4]: 197 to 746 ng/mL
lowest 5-FU plasma concentration (Cp low) during 0-9 hours following capecitabine dosing [4]: 6.4 to 283 ng/mL
5FU D 9 ([4]; 168 h): <2 ng/mL
